Measured values: patent publication US11408886B2, “Method of screening for novel therapeutic targets to develop therapeutic agents for colon cancer and prognostic biomarkers for colon cancer treatment screened using the same” (KOREA INSTITUTE OF SCIENCE AND TECHNOLOGY, priority 2018, dated 2022)

How the values were obtained:
[1] = test system: colon cancer cells; assay: Protein expression level changes after treatment with FAK inhibitors (in-solution digestion, protein identification, expression ratios, FIG. 14); assay type: cell-based, human; set-up: dose or concentration left out as unconfirmed; details: 2 hours (FIG. 14)
Description: A human colon cancer cell line, HCT-116, was cultured using an RPMI-1640 medium containing 10% (v/v) heat-inactivated FBS and 1% (v/v) penicillin/streptomycin in a 60 mm plastic culture plate (Corning Life Science, Acton, Mass., USA) until its cell density reached 2×10^6 cells/cm^2. The culture was performed in a humidified incubator of 5% CO2 at 37° C. The cells were starved for 24 hours and washed with serum-free medium. FGF signaling was amplified by adding 10 ng/mL of EGF, IGF, PMA, and PDGF, followed by further incubation for 2 hours. Thereafter, the cells were harvested and collected by centrifugation at a speed of 300 g for 5 minutes. Cell membranes were disrupted using a sonicator, and centrifuged at a speed of 13,000 g for 30 minutes to collect lysed intracellular proteins. Further, to compare the amounts of expressed FAK-binding proteins by using defactinib (VS-6063) and PF-573228, which are FAK inhibitors, independently or simultaneously, normal intestinal epidermal cells and colon cancer cells were each treated with FAK inhibitors at three different final concentrations […], 1 mM, and 10 mM (2 hours), and then cells were collected and subjected to in-solution digestion to isolate and identify the proteins.

[2] = test system: colon cancer cell line HCT-116; assay: Western blotting / immunoprecipitation of FAK and FAK-bound protein complexes after treatment with FAK signaling substances; assay type: cell-based, human; details: HCT-116, 10 ng/mL, 2 hours, compared with control group not treated with the signaling substances (FIG. 7)
Description: A human colon cancer cell line, HCT-116, was cultured using an RPMI-1640 medium containing 10% (v/v) heat-inactivated FBS and 1% (v/v) penicillin/streptomycin in a 60 mm plastic culture plate (Corning Life Science, Acton, Mass., USA) until its cell density reached 2×10^6 cells/cm^2. The culture was performed in a humidified incubator of 5% CO2 at 37° C. The cells were starved for 24 hours and washed with serum-free medium. FGF signaling was amplified by adding 10 ng/mL of EGF, IGF, PMA, and PDGF, followed by further incubation for 2 hours. Thereafter, the cells were harvested and collected by centrifugation at a speed of 300 g for 5 minutes. Cell membranes were disrupted using a sonicator, and centrifuged at a speed of 13,000 g for 30 minutes to collect lysed intracellular proteins. Further, to compare the amounts of expressed FAK-binding proteins by using defactinib (VS-6063) and PF-573228, which are FAK inhibitors, independently or simultaneously, normal intestinal epidermal cells and colon cancer cells were each treated with FAK inhibitors at three different final concentrations of 0.1 mM, 1 mM, and 10 mM (2 hours), and then cells were collected and subjected to in-solution digestion to isolate and identify the proteins.
The concentrations of the collected proteins were determined using a bicinchoninic acid (BCA) protein assay kit (Thermo Fisher Scientific, Waltham, Mass., USA), and the remaining samples were separated by 10% SDS-PAGE (sodium dodecyl sulfate-polyacrylamide gel electrophoresis), and transferred to a nitrocellulose membrane (Pall Corporation, Pensacola, Fla., USA) to perform Western blotting. The membrane was blocked with PBS containing 0.2% TWEEN 20 and 5% non-fat dry milk for about 2 hours, and blotting was performed using anti-phospho-FAK (1:1000) antibody and anti-β-actin (1:5000) antibody overnight. HRP-conjugated goat anti-rabbit IgG diluted 1:5000 was used as a secondary antibody, and fluorescence images were scanned using an Ez-capture MG (ATTO, NY, USA) instrument. For IP, 1.5 mg of the cell lysate was prepared and incubated overnight with 20 μL of agarose beads preblocked (at 4° C. for 2 hours) with PBS containing 1% bovine serum albumin (BSA), wherein 10 μL of FAK antibody (1:500) was immobilized to the agarose beads. To remove nonspecific binding, the beads were washed with 600 μL of PBS containing 0.1% TWEEN 20 twice, and FAK protein and proteins bound thereto were crosslinked using 2 mM of dithiobis(succinimidyl propionate) (DSP) and dithiobismaleimidoethane (DTME). The crosslinking agents were dissolved in 20 mM DMSO and diluted with PBS (pH 7.4), and then used in the reaction. Washing was performed five times using 600 μL of a 0.1% solution of PBS-Tween 20 and further performed using PBS twice. […]

For `CS(=O)(=O)c1cccc(CNc2nc(Nc3ccc4c(c3)CCC(=O)N4)ncc2C(F)(F)F)c1` [PF-573228], the ELAVL1 expression level [1] was “statistically significant reduction”, the SYNE1 expression level [1] was “statistically significant reduction” and the ZYX expression level [1] was “statistically significant reduction”. For the same compound, the ARFGEF expression level ([1]; reduction only with PF-573228) was “significant reduction”.

With `CCCCCCCCCCCCCC(=O)O[C@@H]1[C@@H](C)[C@@]2(O)[C@@H](C=C(CO)C[C@]3(O)C(=O)C(C)=C[C@@H]23)[C@@H]2C(C)(C)[C@]12OC(C)=O` [PMA, phorbol 12-myristate 13-acetate] the “complexes of the FAK protein and the proteins specifically bound thereto” value [2] was “increased two-fold or more”.

PDGF was tested, and the “complexes of the FAK protein and the proteins specifically bound thereto” value [2] was “increased two-fold or more”.

With “hEGF: human epidermal growth factor, FAK signaling substance” the “complexes of the FAK protein and the proteins specifically bound thereto” value [2] was “increased two-fold or more”.

For “hIGF-1: human insulin-like growth factor-1, FAK signaling substance”, the “complexes of the FAK protein and the proteins specifically bound thereto” value [2] was “increased two-fold or more”.
